Reference: patent US8802138B2, “Methods and compositions for improved deliver, expression or activity of RNA interference agents” (priority 2009, dated 2014)
Entries after “also recorded” stand apart in the source; their conditions may differ.

Experiments:
[1] = test system: Hs766T, MCF7 and PC3 cells; experiment: siGLO release after pretreatment with enabler agent, confocal fluorescence microscopy; format: cell-based, human; conditions: agent 4 hours, then liposomal siGLO (DC-RNAi) 6 hours
Description: (§1) The effectiveness of RIDES in enhancing the intracellular bioavailability of RNAi (i.e., promoting the delivery of RNAi to the cytosol and the release of RNAi from liposomes, endosomes or lysosomes) was studied by monitoring the intracellular trafficking and locations of lipid vectors and RNAi using confocal fluorescence microscopy. […] For monitoring the location of liposomes, rodamine-labeled lipids (red fluorescence) was added to the liposome during liposome preparation. Internalization of siGLO-containing liposomes into the cytosol of a cell yields punctuated red and green fluorescence signals.
Three studies were conducted using siGLO as the RNAi. The lipid vector was the DC liposomes. The study was performed in one or more of three human tumor cell lines, i.e., pancreatic Hs766T, breast cancer MCF7, and prostate cancer PC3.
The first study evaluated the effects of pretreatment with enabler agents. […] Additional cytotoxic agents not acting through tubulin interaction or topoisomerase inhibition, i.e., cisplatin and 5-fluorouracil, were included as side-by-side comparisons. Cells were treated with one of these agents for 4 hours, followed by incubation with liposomal siGLO for 6 hours. […] After pretreatment with enabler agent, cells were washed with cold FBS-free medium for 3 times, fixed with formalin, stained with the nucleus dye DRAQ5, and examined using confocal fluorescence microscopy. […] Because only the free siGLO (not embedded in liposomes) can enter the nucleus, the nuclear accumulation of siGLO indicates the release of RNAi from the liposomes, endosomes, or lysosomes.

[2] = test system: prostate cancer PC3 cells; experiment: siGLO release with concurrent enabler treatment, confocal microscopy; format: cell-based, human; conditions: agent concurrent with the siGLO treatment
Description: as §1
The study was performed in prostate cancer PC3 cells.

HS766T cells [3] = experiment: Concentration-dependence of paclitaxel effect on siGLO transfection; format: cell-based, human; conditions: 10 and 50 nM for 4 hours
Description: as §1

[4] = test system: porcine arterial smooth muscle cells; experiment: Paclitaxel cytotoxicity, MTT assay, normal cells; format: cell-based
Description: (§2) In vivo antitumor activity was measured in tumor-bearing animals. In vitro antitumor activity was measured in cultured cells using the microtetrazolium assay (MTT). This assay measures the ability of cells to reduce the MTT dye, and is generally used as a measurement of the total cell number.
(§3) This was evaluated in porcine arterial smooth muscle cells; the duration of drug treatment was 36 hours. […] Cytotoxicity was measured using the using the MTT assay.

HS766T cells [5] = experiment: Cytotoxicity of 4 hour paclitaxel treatment, MTT assay; format: cell-based, human; conditions: 10 nM for 4 hours
Description: as §2

breast MCF7 cells = experiment: Paclitaxel cytotoxicity, MTT assay; format: cell-based, human
pancreatic HS766T = experiment: Paclitaxel cytotoxicity, MTT assay; format: cell-based, human
Description: as §2, §3

prostate PC3 = experiment: Paclitaxel cytotoxicity, MTT assay; format: cell-based; conditions: Homo sapiens, read-out: 50% inhibition of IC50 (nM); PC3, 48 hours
[6] = concentration time product producing 50% cytotoxicity

| Structure (SMILES) | nuclear accumulation of siGLO (release of RNAi from liposomes, endosomes or lysosomes) [1] | nuclear accumulation of siGLO [2] | further results |
| --- | --- | --- | --- |
| O=c1[nH]cc(F)c(=O)[nH]1 [5-fluorouracil] | did not change the punctated pattern of siGLO localization; also recorded: ineffective | – | – |
| N.N.[Cl][Pt][Cl] [cisplatin] | did not change the punctated pattern of siGLO localization; also recorded: ineffective | ineffective | – |
| COc1cc2c(c(OC)c1OC)-c1ccc(OC)c(=O)cc1[C@@H](NC(C)=O)CC2 [colchicine] | induced nuclear accumulation of green fluorescence signals | – | – |
| CC(=O)O[C@@]12CO[C@@H]1C[C@H](O)[C@@]1(C)C(=O)[C@H](O)C3=C(C)[C@@H](OC(=O)[C@H](O)[C@@H](NC(=O)OC(C)(C)C)c4ccccc4)C[C@@](O)([C@@H](OC(=O)c4ccccc4)[C@H]21)C3(C)C [docetaxel] | induced nuclear accumulation of green fluorescence signals | – | – |
| COc1cccc2c1C(=O)c1c(O)c3c(c(O)c1C2=O)C[C@@](O)(C(=O)CO)C[C@@H]3O[C@H]1C[C@H](N)[C@H](O)[C@H](C)O1 [doxorubicin] | induced nuclear accumulation of green fluorescence signals | – | – |
| COC(=O)Nc1nc2ccc(C(=O)c3cccs3)cc2[nH]1 [nocodazole] | induced nuclear accumulation of green fluorescence signals | extensive nuclear accumulation of siGLO | – |
| CC(=O)O[C@H]1C(=O)[C@@]2(C)[C@H]([C@H](OC(=O)c3ccccc3)[C@]3(O)C[C@H](OC(=O)[C@H](O)[C@@H](NC(=O)c4ccccc4)c4ccccc4)C(C)=C1C3(C)C)[C@]1(OC(C)=O)CO[C@@H]1C[C@@H]2O [paclitaxel] | induced nuclear accumulation of green fluorescence signals | extensive nuclear accumulation of siGLO | appearance of siGLO in the nucleus (HS766T cells [3]): enhanced the appearance of siGLO in the nucleus at both concentrations; also recorded: effective; IC50 ([4]; Sus scrofa, read-out: 50% inhibition of IC50 (nM), 36 hours): 113 nM; CxT (nMxhr) [4, 6]: 4068 nMxhr; cytotoxicity (HS766T cells [5]): no apparent toxicity; IC50 (breast MCF7 cells; Homo sapiens, read-out: 50% inhibition of IC50 (nM), MCF7, 48 hours): 5.2 nM; CxT (nMxhr) (breast MCF7 cells; concentration time product producing 50% cytotoxicity, MCF7): 250 nMxhr; IC50 (pancreatic HS766T; Homo sapiens, read-out: 50% inhibition of IC50 (nM), 48 hours): 12.7 nM; CxT (nMxhr) (pancreatic HS766T; [6]): 610 nMxhr; IC50 (prostate PC3): 15.5 nM |
| CC[C@]1(O)C[C@H]2CN(CCc3c([nH]c4ccccc34)[C@@](C(=O)OC)(c3cc4c(cc3OC)N(C=O)[C@H]3[C@@](O)(C(=O)OC)[C@H](OC(C)=O)[C@]5(CC)C=CCN6CC[C@]43[C@@H]65)C2)C1 [vincristine] | induced nuclear accumulation of green fluorescence signals | – | – |
